Data as given in ChEMBL document CHEMBL1165911, “Elaborate ligand-based pharmacophore exploration and QSAR analysis guide the synthesis of novel pyridinium-based potent beta-secretase inhibitory leads” (Bioorg Med Chem, 2010).
Square brackets hold non-standard residues; d marks the D form. Peptide text beside a SMILES is read from it. * marks the point of attachment. ξ: configuration not given here. Cbz = O=C(OCc1ccccc1)*; Boc = CC(C)(C)OC(=O)*; ξV = CC(C)C(N)C(=O)O; OBn = c1ccc(CO*)cc1; Bn = c1ccc(C*)cc1

What follows are compounds tested against Beta-secretase 1 (Homo sapiens, UniProt P56817).
Chain of Beta-secretase 1 (P56817 whole entry): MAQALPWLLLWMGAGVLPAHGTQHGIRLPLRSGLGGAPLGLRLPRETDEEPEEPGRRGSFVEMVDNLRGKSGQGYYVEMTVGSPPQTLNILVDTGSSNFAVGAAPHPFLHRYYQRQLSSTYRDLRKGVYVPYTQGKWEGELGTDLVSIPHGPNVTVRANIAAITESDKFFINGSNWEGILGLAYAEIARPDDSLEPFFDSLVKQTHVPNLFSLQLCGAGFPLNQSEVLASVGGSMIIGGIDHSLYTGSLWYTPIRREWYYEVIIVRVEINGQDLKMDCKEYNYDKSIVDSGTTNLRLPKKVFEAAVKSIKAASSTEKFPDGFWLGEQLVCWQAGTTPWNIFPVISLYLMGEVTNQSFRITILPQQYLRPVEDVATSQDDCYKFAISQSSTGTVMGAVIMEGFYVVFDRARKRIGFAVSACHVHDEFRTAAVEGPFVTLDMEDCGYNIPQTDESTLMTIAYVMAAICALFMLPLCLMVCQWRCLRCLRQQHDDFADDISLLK
Description: Inhibition of BACE1 after 2 hrs by FRET assay

Row | SMILES | IC50 [µM]
1 | CC(C)C(NC(=O)CNC(=O)CNC(=O)OCc1ccccc1)C(=O)O (stereo not drawn) (Cbz-Gly-Gly-[ξV]-OH) | 500
2 | Cc1oc(-c2ccccc2)cc1C(=O)NCC(=O)NC(C(=O)O)C(C)C (stereo unspecified) | 500
3 | COc1cc(/C=N/Nc2nc(Nc3ccccc3)nc(N3CCOCC3)n2)cc(Br)c1O | 100
4 | CCOc1cc(C2C(C(=O)OCc3ccccc3)=C(C)NC3=C2C(=O)CC(C)(C)C3)cc(Br)c1O (stereo unspecified) | 100
5 | O=C(NCc1ccc(Cl)cc1)c1ccc(N2CC3CC(C2)c2cccc(=O)n2C3)c(NS(=O)(=O)c2ccc3c(c2)OCCO3)c1 (stereo unspecified) | 100
6 | CCCCCCc1nc2ccccc2c(=O)n1NC(O)c1c(O)c2cccc3c2n(c1=O)CCC3 (stereo unspecified) | 100
7 | CC1CCN(S(=O)(=O)c2ccc3[nH]c(=O)cc(C(=O)NCCCN4CCCC4)c3c2)CC1 | 100
8 | CCN1CCCC1CNC(=O)c1ccc2c(=O)n(Cc3cccc(Br)c3)c(=S)[nH]c2c1 (stereo unspecified) | 100
9 | COc1cccc(C(=O)OCC(=O)NCc2ccc(Cl)cc2Cl)c1O | 500
10 | O=C1CSC(c2ccc(Cl)cc2)N1Nc1nc(Nc2ccccc2)nc(N2CCCCC2)n1 (stereo unspecified) | 100
11 | O=C(CN1CCN(Cc2ccccc2)CC1)N/N=C\c1cc(I)cc(I)c1O | 100
12 | O=C(NCc1ccccc1)c1c[nH]c2ccc(S(=O)(=O)NC3CCCCNC3=O)cc2c1=O (stereo unspecified) | 100
13 | Cc1ccc(Nc2nc(N/N=C/c3cccc(Br)c3)nc(N3CCOCC3)n2)cc1 | 100
14 | Cc1cc(O)c2c(C)c(CC(=O)N[C@H](CCCNC(N)=O)C(=O)O)c(=O)oc2c1 | 500
15 | O=C(NCCc1ccc(Cl)cc1)C1CCC(CNc2nc(=S)[nH]c3ccccc23)CC1 (stereo unspecified) | 100
16 | CCc1ccc(N2C(=O)Nc3ccc(Br)cc3C2(O)C(=O)NCC(C)CN2CCC(C)CC2)cc1 (stereo unspecified) | 100
17 | CCCc1cc(=O)oc2c(C)c(OCC(=O)NCC(=O)NCC(=O)O)ccc12 | 100
18 | CCc1ccc(Sc2c(N)c3c(c(N)c2Sc2ccc(CC)cc2)C(=O)c2ccccc2C3=O)cc1 | 253
19 | O=C(O)CC(NNc1nc(NCCO)nc(N2CCOCC2)n1)c1ccccc1 (stereo unspecified) | 500

Row | SMILES | IC50 [µM]
20 | O=C(O)CCCNC(=O)CCCCC(=O)C(c1ccccc1)c1ccccc1 | 500
21 | C[C@H](NC(=O)c1cc(OCC(=O)NCCCCCN)cc(OS(=O)(=O)Cc2ccccc2)c1)c1ccccc1 | 100
22 | COc1cc2[nH]c(=O)n(Cc3ccc(C(=O)NCc4ccc(C)cc4)cc3)c(=O)c2cc1OC | 100
23 | CC(C)(C)OC(=O)NC(CC(=O)OCc1ccccc1)C(=O)NC(COCc1ccccc1)C(=O)NCC(=O)OCc1ccccc1 (stereo unspecified) (Boc-Asp(OBn)-Ser(Bn)-Gly-OBn; configuration not given here) | 100
24 | Cc1c(CC(=O)N[C@H](CCCNC(N)=O)C(=O)O)c(=O)oc2cc(O)ccc12 | 500
25 | CCc1cc(=O)oc2c(C)c(OC(=O)NCC(=O)NCC(=O)O)ccc12 | 500
26 | Oc1c(I)cc(I)cc1/C=N/Nc1nc(Nc2cccc3ccccc23)nc(N2CCOCC2)n1 | 100
27 | CN(C)CCNC(=O)c1c[nH]c2ccc(S(=O)(=O)N3CCc4ccccc4C3)cc2c1=O | 100
28 | Cc1ccc(C)c(Nc2nc(N/N=C/c3cc(Br)cc(Br)c3O)nc(N3CCOCC3)n2)c1 | 100
29 | CCN1CCN(CCNC(=O)c2ccc3c(=O)n(Cc4ccc(Cl)cc4)c(=S)[nH]c3c2)CC1 | 100
30 | O=C(NCc1ccccc1)c1ccc(N2CC3CC(C2)c2cccc(=O)n2C3)c(NS(=O)(=O)c2ccc3c(c2)OCCO3)c1 (stereo unspecified) | 100
31 | Cc1cc(C)nc(NS(=O)(=O)c2ccc(Nc3nc(-c4ccc(C(C)C)cc4)cs3)cc2)n1 | 1000
32 | NS(=O)(=O)c1ccc(NC(=O)CSc2nnc(-c3ccccc3)c(-c3ccccc3)n2)cc1 | 100
33 | O=C(O)c1cc(-c2ccc(/C=N/Nc3nc(Nc4ccccc4)nc(N4CCCCC4)n3)o2)ccc1Cl | 152
34 | CCNC[C@@H](O)[C@H](Cc1ccccc1)NC(=O)c1cc(C(=O)N[C@H](C)c2ccc(F)cc2)cc(N(C)S(C)(=O)=O)c1 | 15
35 | NNC(=O)CN1C(CN2CCOCC2)=Nc2ccc(Br)cc2C1c1ccccc1 (stereo unspecified) | 100
36 | O=C(Nc1ccccc1C(=O)NCC(O)CNC(=O)c1ccccc1NC(=O)c1ccccc1)c1ccccc1 | 100
37 | CCOc1cc(/C=N\NC(=O)COc2ccc(C)cc2)cc(I)c1O | 100
38 | Clc1ccc(/C=N/Nc2nc(Nc3ccccc3)nc(Nc3ccccc3)n2)cc1Cl | 100

Row | SMILES | IC50 [µM]
39 | CC1CCCCN1CCNC(=O)c1cc(=O)[nH]c2ccc(S(=O)(=O)N3CCOCC3)cc12 (stereo unspecified) | 100
40 | CCCCc1ccc(Nc2nc3ccccc3nc2NS(=O)(=O)c2ccc(Cl)cc2)cc1 | 100
41 | CC(NC(=O)NCCNC(=O)NC(C)C(=O)O)C(=O)O (stereo unspecified) | 500
42 | Cc1ccc(NC(=O)c2cc(NC(=O)CCCC(=O)O)ccc2N2CCOCC2)cc1 | 500
43 | Cc1c(CC(=O)N[C@H](CCCNC(N)=O)C(=O)O)c(=O)oc2c(C)c(O)ccc12 | 500
44 | COc1nc(NCCN2CCOCC2)nc(Nc2ccc(I)cc2)n1 | 100
45 | CN(C)c1nc(N/N=C/c2cc(I)cc(I)c2O)nc(N2CCOCC2)n1 | 100
46 | O=C(Nc1ccc(Cl)cc1C(=O)c1ccccc1)c1ccc(Nc2nc(-c3ccccc3)c3cc(Br)ccc3n2)cc1 | 100
47 | O=C(O)c1cccc(-c2ccc(/C=N/Nc3nc(Nc4ccccc4)nc(N4CCCCC4)n3)o2)c1 | 100
48 | Clc1ccc(/C=N/Nc2nc(Nc3cccc(Br)c3)nc(N3CCOCC3)n2)cc1 | 100
49 | COc1ccc(OC)c(/N=c2\oc3c(C)ncc(CO)c3cc2C(=O)Nc2ccc(Cl)cc2)c1 | 100
50 | O=C(Nc1ccc(Cl)c(C(F)(F)F)c1)C(NS(=O)(=O)c1cccs1)c1ccccc1 (stereo unspecified) | 100
51 | CCCc1cc(=O)oc2cc(OCC(=O)NCC(=O)NCC(=O)O)ccc12 | 500
52 | Oc1c(I)cc(I)cc1/C=N/Nc1nc(NCc2ccccc2)nc(N2CCOCC2)n1 | 100
53 | CCOC(=O)C(Cc1ccc(O)cc1)NS(=O)(=O)c1ccc2c(c1)C(=O)c1ccccc1C2=O (stereo unspecified) | 100
54 | Clc1nc(NCCN2CCOCC2)nc(NCc2ccc(I)cc2)n1 | 100
55 | COc1cc(/C=N/Nc2nc(Nc3ccc(F)cc3)nc(N3CCCCC3)n2)ccc1OCC(=O)O | 100
56 | CCN1CCCC1CNC(=O)c1ccc2c(=O)n(Cc3ccc(Cl)cc3)c(=S)[nH]c2c1 (stereo unspecified) | 100

Second part, the compound after the results:

Row | IC50 [µM] | SMILES
57 | 100 | CCc1ccc(N2C(=O)Nc3ccc(Br)cc3C2(O)C(=O)NCc2ccccc2)cc1 (stereo unspecified)
58 | 48.1 | Cc1ccc(Nc2nc(CN3CCOCC3)nc(N/N=C/c3cc(Br)cc(Br)c3O)n2)cc1
59 | 15 | C[C@@H](NC(=O)c1cc(C(=O)N[C@@H](Cc2ccccc2)[C@H](O)CNC(C)(C)C)cc(N(C)S(C)(=O)=O)c1)c1ccc(F)cc1
60 | 100 | Cc1cc(Br)c(Nc2nc(CN3CCOCC3)nc(N/N=C/c3cc(I)cc(C)c3O)n2)cc1Cl
61 | 100 | NS(=O)(=O)c1ccc(CCNC(=O)CCc2nc3sc4c(c3c(=O)[nH]2)CCCC4)cc1
62 | 25 | C=CN(C=C)C(=O)c1cc(OCC(=O)NCCCCCN)cc(C(=O)N[C@H](C)c2ccccc2)c1
63 | 100 | O=C(NCCc1ccc(Cl)cc1)c1ccc(Cn2c(=S)[nH]c3ccc(N4CCOCC4)cc3c2=O)cc1
64 | 100 | COc1ccc(-n2nc(C(=O)NCC(=O)Nc3cccc(C)n3)c3ccccc3c2=O)cc1Cl
65 | 100 | O=C(NCCc1ccccc1)c1c[nH]c2ccc(S(=O)(=O)N3CCc4ccccc4C3)cc2c1=O
66 | 100 | O=C(CC1Sc2ccccc2NC1=O)Nc1ccccc1SC(F)(F)C(F)(F)C(F)(F)F (stereo unspecified)
67 | 100 | FC(F)(Cl)Oc1ccc(Nc2nc(NCc3ccccc3)nc(N3CCCCC3)n2)cc1
68 | 100 | Cc1ccc(CNC(=O)c2ccc(N3CC4CC(C3)c3cccc(=O)n3C4)c(NS(=O)(=O)c3ccc4c(c3)OCCO4)c2)cc1 (stereo unspecified)
69 | 100 | Oc1ccc(-c2ccccc2)cc1CN1CCN(Cc2cc(-c3ccccc3)ccc2O)CC1
70 | 100 | C=CCn1c(SCC(=O)Nc2ccc(S(N)(=O)=O)cc2)nc2sc3c(c2c1=O)CCCC3
71 | 100 | O=C(NCc1ccc(F)cc1)c1ccc(N2CC3CC(C2)c2cccc(=O)n2C3)c(NS(=O)(=O)c2ccc3c(c2)OCCO3)c1 (stereo unspecified)
72 | 100 | CC1CCCCN1CCNC(=O)c1cc(=O)[nH]c2ccc(S(=O)(=O)N3CCCCC3)cc12 (stereo unspecified)
73 | 100 | CCSc1scc(CC)c1C1C(C(=O)Nc2ccc(Br)cn2)=C(C)NC2=C1C(=O)CC(C)(C)C2 (stereo unspecified)
74 | 100 | CC(=O)Nc1cc(C(=O)NCc2cc(F)cc(Cl)c2)ccc1Sc1ccc(Cl)cc1

Row | IC50 [µM] | SMILES
75 | 100 | Cc1ccc(Nc2nc(N/N=C/c3ccc(Cl)c(Cl)c3)nc(N3CCOCC3)n2)c(Cl)c1
76 | 1 | CC(C)(C)OC(=O)N1CCN(c2ccc(Br)cc2NC(=O)c2cccc3ccccc23)CC1
77 | 41 | CC(C)S(=O)(=O)N(C)c1cc(C(=O)N[C@@H](Cc2ccccc2)[C@H](O)CNC2CC2)cc(C(=O)N[C@H](C)c2ccccc2)c1
78 | 63 | C[C@@H](NC(=O)c1cc(NS(C)(=O)=O)cc(C(=O)N[C@@H](Cc2ccccc2)[C@H](O)CNC2CC2)c1)c1ccc(F)cc1
79 | 10 | O=C(Nc1cc(Br)ccc1N1CCOCC1)c1cc2ccccc2oc1=O
80 | 11.9 | CCOc1nc(NCCN2CCOCC2)nc(NNc2ccc(I)cc2C)n1
81 | 20 | O=C(Nc1cc(Br)ccc1N1CCOCC1)c1cccc2ccccc12
82 | 81.8 | Cc1ccc(C)c(Nc2nc(N/N=C/c3cc(Br)c(O)c(Br)c3C)nc(N3CCOCC3)n2)c1
83 | 50 | COc1ccc(C(=O)Nc2ccccc2C(=O)NC(CCSC)C(=O)NNC(=O)Sc2nc3ccccc3s2)cc1 (stereo unspecified)
84 | 14 | C[C@@H](NC(=O)c1cc(C(=O)N[C@@H](Cc2ccccc2)[C@H](O)CNC2CC2)cc(N(C)S(=O)(=O)N(C)C)c1)c1ccccc1
85 | 1 | COc1cccc2cc(C(=O)Nc3cc(Br)ccc3N3CCN(C(=O)OC(C)(C)C)CC3)c(=O)oc12
86 | 10 | C[C@@H](NC(=O)c1cc(C(=O)N[C@@H](Cc2ccccc2)[C@H](O)CNC2CC2)cc(N(C)S(C)(=O)=O)c1)c1ccc(F)cc1
87 | 27.9 | O=C(O)c1cc(-c2ccc(/C=N/Nc3nc(Nc4ccc(F)cc4)nc(N4CCCCC4)n3)o2)ccc1O
88 | 5 | COc1cccc2cc(C(=O)Nc3cc(Br)ccc3N3CCN(Cc4ccccc4)CC3)c(=O)oc12
89 | 23 | C[C@@H](NC(=O)c1cc(C(=O)N[C@@H](Cc2ccccc2)[C@H](O)CN)cc(N(C)S(C)(=O)=O)c1)c1ccc(F)cc1
90 | 5 | O=C(Nc1cc(Br)ccc1N1CCN(Cc2ccccc2)CC1)c1cccc2ccccc12
91 | 10 | COc1cccc2cc(C(=O)Nc3cc(Br)ccc3N3CCOCC3)c(=O)oc12
